Reference: patent US11400089B2, “Multikinase inhibitors and uses in reproductive and digestive tract fibrosis” (AIVIVA BIOPHARMA, INC., priority 2017, dated 2022)
Counter-ions that a name gives are not always drawn.

Experiments:
[1] = system: testosterone and phenylephrine induced benign prostate hyperplasia; assay: testosterone and phenylephrine induced benign prostate hyperplasia in rats (Example 1); assay type: in vivo, Male Wistar rats; details: for epithelial hyperplasia score, representative image of dorsolateral prostate: FIG. 2; for mean prostate weight (prostate weight/100 g body weight): day 42, FIG. 1; for mean dorsolateral prostate hyperplasia scores compared to vehicle treatment: induced rats, intra-prostate days 15 and 29, axitinib, sorafenib, FIG. 3
Protocol: Wistar and Sprague-Dawley strains of rats are susceptible to developing benign prostatic hyperplasia after treatment with exogenous testosterone and can serve as a model of hyperplasia induced by endogenous hormones, i.e., BPH in males and uterine fibroids (UF) in females. A study was conducted to determine the effects of test compounds and vehicle on testosterone and phenylephrine induced benign prostate hyperplasia in rats. Male Wistar rats were induced with testosterone (2 mg/kg) plus phenylephrine (5 mg/kg) administered daily by subcutaneous injection on days 1 through 28. Vehicle or the multikinase test compounds, axitinib (1%), sorafenib (1%), pirfenidone (2.5%) and riociguat (1%), were administered by intra-prostate injection (0.2 mL) on days 15 and 29. Animals were euthanized on day 42. Body weights were determined. Prostate glands were harvested and weighed.
Prostate weight/100 g body weight was determined for each treatment group (FIG. 1). […] Rather, only multikinase inhibitors with a certain inhibitory spectrum would work.
At necropsy, the dorsolateral and ventral lobes of the prostate were separated and cut into halves. The left halves were fixed in 10% neutral buffered formalin, sectioned, and stained with Hematoxylin and Eosin (H&E). Glandular hyperplasia was recognized as an increase in epithelial cells within normal appearing gland profiles, reflected by stratification of epithelial cells and increased presence of epithelial tufting and papillary projections (FIG. 2). Stromal changes were examined microscopically. These changes included inflammation and tissue fibroplasia. Each section was given a severity score ranging from 0 (not present) through 5 (severe).

[2] = system: suture induced ocular fibrosis; assay: suture induced ocular fibrosis model in rabbits (Example 4); assay type: in vivo
Protocol: A study was conducted to determine the potential beneficial effects of topical administration of test compounds and vehicle in a suture induced ocular fibrosis model in rabbits. Sutures were placed intrastromally, under a microscope, in the cornea of rabbits. In each eye, one 9.0 silk suture was placed, in a vertical position, temporal to the center of the cornea and a second suture was placed nasal to the corneal center. Each suture had two stromal incursions approximately 2 mm from the limbus. Test compounds having a certain spectrum of multikinase inhibition activities or vehicle were topically instilled (35 μL/eye) in the eyes three times daily for 10 days following the day of surgery. The treatment groups include vehicle, axitinib (0.3%), nintedanib (0.3%), pirfenidone (1%), riociguat (0.3%), sorafenib (0.3%) and lenvatinib (0.3%). Six left eyes were used per treatment group.
During the in-life phase, gross ocular observations of very slight to moderate conjunctival congestion and swelling were similar among groups, including the vehicle control. The animals were sacrificed on Day 11 and eyes enucleated and dissected for histopathological evaluation.

[3] = system: full-thickness dermal wounds; assay: full-thickness dermal wounds in rabbit ear, histopathology (Example 5); assay type: in vivo, New Zealand White rabbits; parameters: average total score of test wounds lower than untreated/control wounds by / Neovascularization (histopathology score, treated mean) / Fibrosis/Collagen (histopathology score, treated mean) / Reepithelialization (histopathology score, treated mean) / Total Score (histopathology, treated mean): scale not given here; details: for Fibrosis/Collagen (histopathology score, treated mean) / Neovascularization (histopathology score, treated mean) / Reepithelialization (histopathology score, treated mean) / Total Score (histopathology, treated mean): 1% intradermal dosing days 15 and 29, Day 42
Protocol: Test compounds were examined in full-thickness dermal wounds in rabbits. Seven male New Zealand White rabbits, ranging in body weight from 3.03 to 3.40 kg were used in this study. Four wounds were placed on the ventral surface of both ears using an 8 mm skin punch biopsy. Axitinib (1.0%), nintedanib (1.0%), lenvatinib (1.0%), sorafenib (1.0%) and sunitinib (1.0%) were administered by intradermal or intralesional injection on days 15 and 29 following surgery. Animals were euthanized on Day 42 and trauma sites were harvested and divided in half. One half was preserved in formalin for histological examination and the other half frozen for TGF beta analysis. Tissue H&E staining was evaluated semi-quantitatively for inflammation and neovascularization. Tissue fibrosis and collagen organization were evaluated by Mason's trichrome staining. Scores for four intradermal sites receiving test articles were averaged for each rabbit. Most scar tissues were composed of neovascularization, fibroblast hyperplasia, collagen disorganization and re-epithelialization.

[4] = system: TGF beta 1 protein levels; assay: TGF beta 1 protein level (ELISA) in pig linear incision wound model (Example 6); assay type: in vivo, Gottingen minipigs; details: 16 mg per wound site intradermal; Days 4, 7 and 9; FIG. 11
Protocol: Full-thickness linear incision wounds were created in Gottingen minipigs on Day 1. 10 wounds approximately 3 cm in length and spaced at least 5 cm apart were created on the dorsal surface of the animals, perpendicular to the spine. Test agents included nintedanib (2%), lenvatinib (2%), sorafenib (1%), axitinib (2%) and vehicle control. Test agents were administered by intradermal injection immediately after wound creation. The dose of nintedanib, lenvatinib, sorafenib, or axitinib was 16 mg per wound site. Three minipigs were dosed in a similar manner. One minipig was sacrificed on Day 4, one on Day 7, and one on Day 9.
At the time of sacrifice, two dermal punch biopsies (4 mm) from each side of the wound sites were collected. Two biopsies were flash frozen in liquid nitrogen and stored at −80° C. prior to processing by protein extraction and ELISA (enzyme-linked immunosorbent assay) analysis. TGF beta protein levels were measured on Days 4, 7 and 9.

TGF beta mRNA expression = TGF beta mRNA expression in rabbit dermal wound model (Example 5); assay type: in vivo, New Zealand White rabbits; details: 1% intradermal days 15 and 29; Day 42; FIG. 10
Protocol: Test compounds were examined in full-thickness dermal wounds in rabbits. Seven male New Zealand White rabbits, ranging in body weight from 3.03 to 3.40 kg were used in this study. Four wounds were placed on the ventral surface of both ears using an 8 mm skin punch biopsy. Axitinib (1.0%), nintedanib (1.0%), lenvatinib (1.0%), sorafenib (1.0%) and sunitinib (1.0%) were administered by intradermal or intralesional injection on days 15 and 29 following surgery. Animals were euthanized on Day 42 and trauma sites were harvested and divided in half. One half was preserved in formalin for histological examination and the other half frozen for TGF beta analysis.
TGF beta mRNA expression in treated trauma samples was compared to expression in untreated samples. In general, TGF beta expression in treated samples was lower relative to untreated trauma samples.

[5] = system: testosterone and phenylephrine induced benign prostate hyperplasia; assay: testosterone and phenylephrine induced benign prostate hyperplasia in rats (Example 3); assay type: in vivo, Male Wistar rats; details: for epithelial (glandular) hyperplasia score, dorsolateral prostate, representative image: grade 0 (not present) to 5 (severe), FIG. 4
Protocol: This study was conducted to determine the effects of multikinase inhibitors and vehicle on testosterone and phenylephrine induced benign prostate hyperplasia in rats. Male Wistar rats were induced with testosterone (2 mg/kg) plus phenylephrine (5 mg/kg) administered daily by subcutaneous injection on days 5 through 32. Vehicle or test compounds (all 1% w/v), nintedanib, sunitinib or lenvatinib and doxazosin mesylate, were administered by intra-prostate injection (0.4 ml) in dorsolateral and ventral lobes on days 1 and 18. Animals were euthanized on day 32.
At necropsy, the ventral and dorsolateral lobes of the prostate were separated and then cut into halves. The left halves were fixed in 10% neutral buffered formalin, sectioned, and stained with Hematoxylin and Eosin (H&E). Histological changes in these sections were scored. Epithelial hyperplasia was recognized as an increase in epithelial cells within normal-appearing gland profiles, primarily reflected by stratification of epithelial cells and increased presence of epithelial tufting and papillary projections. A severity grade of 0 (not present) through 5 (severe) was assigned to each sample.

[6] = TE+PE induced rats, axitinib 1%, sorafenib 1%, pirfenidone 2.5%, severity score 0 (not present) to 5 (severe), induced vehicle group score=2
[7] = 1% intradermal, rabbit ear wound
[8] = TE+PE induced rats, intra-prostate 0.4 ml days 1 and 18, day 32, induced vehicle score=4

| SMILES | mean dorsolateral prostate hyperplasia scores compared to vehicle treatment ([1]; riociguat 1%, pirfenidone 2.5%) | epithelial hyperplasia score, representative image of dorsolateral prostate [1, 6] | Fibrosis/Collagen (histopathology score, treated mean) ([3]; rabbit ear wound) | Neovascularization (histopathology score, treated mean) ([3]; rabbit ear wound) | Reepithelialization (histopathology score, treated mean) ([3]; rabbit ear wound) | Total Score (histopathology, treated mean) ([3]; rabbit ear wound) | epithelial (glandular) hyperplasia score, dorsolateral prostate, representative image [5, 8] | other results |
| --- | --- | --- | --- | --- | --- | --- | --- | --- |
| COC(=O)N(C)c1c(N)nc(-c2nn(Cc3ccccc3F)c3ncccc23)nc1N [riociguat] | demonstrated a decrease in hyperplasia scores |  |  |  |  |  |  | epithelial hyperplasia score, representative image of dorsolateral prostate ([1]; TE induced rat, riociguat 1%, severity score 0 to 5, TE-induced group 6 score=2): 1; mean prostate weight (prostate weight/100 g body weight) ([1]; TE induced rats, riociguat 1% intra-prostate days 15 and 29, compared to group 6): resulted in a reduction in the mean prostate weight |
| CNC(=O)c1cc(Oc2ccc(NC(=O)Nc3ccc(Cl)c(C(F)(F)F)c3)cc2)ccn1 [sorafenib] | did not lead to reduction in hyperplasia | 2 | 2.5 | 3 | 0.3 | 5.8 |  | areas of neovascularization on the corneal surface ([2]; 0.3% topical 35 μL/eye three times daily for 10 days, FIG. 8): efficacious in reducing the areas of neovascularization; fibroplasia and/or collagen density (histological staining) ([2]; 0.3% topical three times daily for 10 days, Day 11, FIG. 9): little or no effect on fibroplasia or collagen formation; alpha SMA staining (immunohistochemical analysis) ([2]; 0.3% topical three times daily for 10 days, relative to vehicle, FIG. 9): no effect on alpha SMA relative to vehicle treatment; mean prostate weight (prostate weight/100 g body weight) ([1]; TE+PE induced rats, 1% test article, intra-prostate 0.2 mL days 15 and 29, compared to vehicle-treated group 1): did not show a reduction in the mean prostate weight; angiogenesis and fibrosis at treated trauma sites (histopathology summary) [3, 7]: do not show any reduction in angiogenesis and fibrosis; fibrosis compared with control wound sites [3, 7]: similar, or increased fibrosis compared to control sites; neovascularization compared with untreated wounds [3, 7]: slightly increased neovascularization; scar formation overall compared with control sites [3, 7]: does not appear to have reduced scar formation; TGF beta 1 protein levels in wound [4]: much less effective; mean folds of TGF beta mRNA expression vs untreated trauma samples (TGF beta mRNA expression): do not show mean TGF beta expression levels significantly different from the untreated trauma samples |
| CNC(=O)c1ccccc1Sc1ccc2c(/C=C/c3ccccn3)n[nH]c2c1 [axitinib] |  | 1 | 3.3 | 1 | 0.3 | 4.6 |  | average total score of test wounds lower than untreated/control wounds by ([3]; 1% intradermal, difference treated vs control): 1.4 |
| CCN(CC)CCNC(=O)c1c(C)[nH]c(/C=C2\C(=O)Nc3ccc(F)cc32)c1C [sunitinib] |  |  | 3.7 | 4 | 0 | 7.7 | 3 | epithelial (glandular) hyperplasia score, ventral prostate, representative image ([5]; 768 h): 3 |
| COc1cc2nc(N3CCN(C(=O)C4COc5ccccc5O4)CC3)nc(N)c2cc1OC (centres unmarked) [doxazosin, doxazosin mesylate] |  |  |  |  |  |  | 3 | epithelial (glandular) hyperplasia score, ventral prostate, representative image ([5]; TE+PE induced rats, intra-prostate 0.4 ml days 1 and 18, day 32, grade 0 to 5, induced vehicle score=4, FIG. 5): 3 |
| Cc1ccc(=O)n(-c2ccccc2)c1 [pirfenidone] | demonstrated a decrease in hyperplasia scores | 1 |  |  |  |  |  |  |
